The structures appear in SMILES notation.

Usually melting point stands for the temperature of the solid-liquid transition. For `Cc1nc(NC(=O)c2cccc(C#N)c2)sc1C(=O)NCc1ccccc1` [Example 2.26, 2-(3-Cyanobenzoylamino)-4-methylthiazole-5-carboxylic Acid Benzylamide], the melting point was in the range of 207 to 208 °C. Regarding `Cc1nc(NC(=O)c2ccc(-c3nn[nH]n3)cc2)sc1C(=O)NCc1ccccc1` [Example 6, 4-Methyl-2-[4-(2H-tetrazol-5-yl)benzoylamino]thiazole-5-carboxylic Acid Benzylamide], the melting point was over 300 °C. As for `Cc1nc(NC(=O)c2ccccc2S(C)(=O)=O)sc1C(=O)NCc1ccccc1` [Example 2.36, 2-(2-Methanesulfonylbenzoylamino)-4-methylthiazole-5-carboxylic Acid Benzylamide], the figure is 239 to 242 °C; as for `Cc1nc(NC(=O)c2cccnc2)sc1C(=O)NCc1ccccc1` [Example 2.27, N-(5-Benzylcarbamoyl-4-methylthiazol-2-yl)nicotinamide], 224 to 226 °C; as for `Cc1nc(NC(=O)c2cccc3ccccc23)sc1C(=O)NCc1ccccc1` [Example 2.23, 4-Methyl-2-[(naphthalene-1-carbonyl)amino]thiazole-5-carboxylic Acid Benzylamide], 99 to 101 °C.
